Assay results reported in patent publication US4822791A, “Pharmaceutical compositions of-2,2-1,1-[bis-2,2'-(3,1-benzoxazin-4-one)9 ethylenes” (priority 1984, dated 1989).
Read-outs that look alike come from different tables or passages of the source.

Key:
hyaluronidase = target: T1, hyaluronidase (Bos taurus, UniProt Q2YDK3); test: Anti-hyaluronidase activity (modified Morgan-Elson method); assay type: biochemical; settings: for IC50: hyaluronidase 340NF unit/ml, activating agent Compound 48/80 or CaCl2; for IC20: value marked (IC20), read-out: IC20 (printed in IC50 (mM) column); for IC10: value marked (IC10), read-out: IC10 (printed in IC50 (mM) column)
T1 sequence (Q2YDK3 36-553): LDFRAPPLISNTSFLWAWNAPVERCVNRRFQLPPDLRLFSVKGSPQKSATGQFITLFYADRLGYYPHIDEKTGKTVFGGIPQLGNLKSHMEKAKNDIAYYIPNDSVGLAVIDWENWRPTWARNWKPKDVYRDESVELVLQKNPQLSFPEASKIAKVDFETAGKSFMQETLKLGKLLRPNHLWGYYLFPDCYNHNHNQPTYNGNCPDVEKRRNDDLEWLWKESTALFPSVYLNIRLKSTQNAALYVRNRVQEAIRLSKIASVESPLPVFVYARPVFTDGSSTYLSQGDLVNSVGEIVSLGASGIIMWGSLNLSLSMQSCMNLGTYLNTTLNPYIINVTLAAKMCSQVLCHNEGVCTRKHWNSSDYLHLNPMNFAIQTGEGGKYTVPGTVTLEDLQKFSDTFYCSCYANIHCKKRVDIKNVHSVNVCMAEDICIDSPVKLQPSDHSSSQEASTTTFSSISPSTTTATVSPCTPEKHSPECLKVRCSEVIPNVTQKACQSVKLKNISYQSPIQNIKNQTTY
Description: A buffer soluticn of hyaluronidase (0.1 ml) was taken in a test tube and 0.2 ml each of the buffer solution of various compounds in various concentrations was added, and the mixture was preincubated at 37° C. for 20 minutes. Then, an activating agent (Compound 48/80 or CaCl2) (0.2 ml) was added to make the total amount 0.5 ml, which was incubated at 37° C. for 20 minutes. Then, potassium hyaluronate buffer solution (0.5 ml) was added, and the mixture was incubated at 37° C. for 40 minutes. After cooling, the mixture was treated with aqueous solution of 0.4N NaOH (0.2 ml) and neutralized to stop the reaction. The resulting product was subjecred to measurement of OD585 by the modified Morgan-Elson Method. […] (The final ccncentration of hyaluronidase was 340NF unit/ml.) [formula]

[1] = system: passive cutaneous anaphylaxis (PCA); test: Anti-passive cutaneous anaphylaxis (PCA) activity in rats (Test Example 2); assay type: in vivo, Wistar strain rats; settings: Rattus norvegicus, N 10; for inhibition in vivo at 10 mg/kg: 10 mg/kg PO; for inhibition in vivo at 50 mg/kg: 50 mg/kg PO; for inhibition in vivo at 100 mg/kg: 100 mg/kg PO
Description: Wistar strain rats were sensitized with ovalbumin using aluminium hydroxide gel and Bordetella Pertussis vaccine as adjuvants. Dilutions of antiserum (16-fold and 32-fold) obtained by collecting blood samples 14 days later were administered subcutaneously in the dorsal skin of the rats of the same strain at the rate of 0.1 ml per spot, and the rats were grown for 48 hours. One hour after peroral administration of the sample solution, a mixture of antigen ovalbumin and Evans-blue dye was administered to the tail venous of the animal according to the ordinary procedure. Thirty minutes later, the animals were sacrificed by exsanguination, and the areas of blue spots (long diameter×short diameter) eliciting on the portion of the antiserum injection at the dorsal skin were measured to obtain the rate of inhibition based on the average value shown by the control animals.

[2] = system: experimental ulcer model (Shay); test: Anti-ulcer activity in experimental ulcer model (Shay); assay type: in vivo, Wistar strain male rats
Description: Using 5 eight-week old Wistar strain male rats of 1 group, the rats were previously fasted for […]. The compound of an amount proportionate to the body weight based on the body weight after fasting was administered intraduodenally or intraperitoneally.
Each test compound was evenly suspended or dissolved in an aqueous solution of 0.5% CMC ccntaining 0.1% Tween 80, and administered at the rate of 0.5 ml per 100 g of body weight of the animal. To the controls, only the solvent was administered.
Test was carried out in accordance with Shay's method. After 48 hours' fasting, 5 animals per group were subjected to laparotomy under ether anesthesia, the tract between pylorus of stomach and duodenum was ligated, and the solution of the compound was administered intraduodenally (id) or intraperitoneally (ip), followed by suturing the laparotomy part. Eight hours after administration of the compound liquid, each animal was sacrificed by ether anesthesia and stomach was removed. Then, evaluation on the ulcer condition on the inner surface of stomach, and determination of the amount of gastric juice, of acidity by alkali titration, and of pepsin titer based on substrate of hemoglovin were made on the stored gastric juice. With regard to the acidity, gastric juice amount, and pepsin titer, the results were shown in inhibition rate (%) based on the average value of the control groups.

[3] = read-out: Average Inhibition Rate (%) Antiserum Dilution: × 16
[4] = read-out: Average Inhibition Rate (%) Antiserum Dilution: × 32

SMILES: O=C(Nc1ccccc1C(=O)O)C(=Cc1ccccc1)C(=O)Nc1ccccc1C(=O)O
- IC50 (hyaluronidase; read-out: IC50): 0.035 mM

SMILES: O=C(CC(=O)Nc1ccccc1C(=O)O)Nc1ccccc1C(=O)O [Compound 01, 2,2'-[(1,3-dioxo-1.3-propanediyl)diimino]bisbenzoic acid]
- IC50 (hyaluronidase; read-out: IC50): 0.077 mM

SMILES: O=C(CC(=O)Nc1cccc(C(=O)O)c1)Nc1cccc(C(=O)O)c1 [Compound 02]
- IC20 (hyaluronidase): 0.9 mM

SMILES: CCOC(=O)c1ccccc1NC(=O)CC(=O)Nc1ccccc1C(=O)OCC [Compound 04]
- IC10 (hyaluronidase): 0.015 mM

SMILES: O=C(CC(=O)Nc1cc(Cl)ccc1C(=O)O)Nc1cc(Cl)ccc1C(=O)O [Compound 05]
- IC10 (hyaluronidase): 1.32 mM

SMILES: O=C(CC(=O)Nc1cc([N+](=O)[O-])ccc1C(=O)O)Nc1cc([N+](=O)[O-])ccc1C(=O)O [Compound 06, 4,4'-dinitro-2,2'-[(1,3-dioxo-1,3-propanediyl)diimino]bisbenzoic acid]
- inhibition in vivo at 10 mg/kg [1, 3]: 8.5%
- inhibition in vivo at 10 mg/kg [1, 4]: 11.2%
- inhibition in vivo at 50 mg/kg [1, 3]: 14.9%
- inhibition in vivo at 50 mg/kg [1, 4]: 13.3%
- inhibition in vivo at 100 mg/kg [1, 3]: 18.6%
- inhibition in vivo at 100 mg/kg [1, 4]: 18.8%
- IC50 (hyaluronidase; IC50 (mM)): 0.013 mM

SMILES: Cc1ccc(NC(=O)CC(=O)Nc2ccc(C)cc2C(=O)O)c(C(=O)O)c1 [Compound 07]
- IC10 (hyaluronidase): 0.66 mM
- IC20 (hyaluronidase): 0.72 mM

SMILES: COc1ccc(C(=O)O)cc1NC(=O)CC(=O)Nc1cc(C(=O)O)ccc1OC [Compound 08]
- IC10 (hyaluronidase): 0.22 mM

SMILES: O=C(CC(=O)Nc1cc(Cl)ccc1C(=O)O)Nc1ccccc1C(=O)O [Compound 09, 4-chloro-2,2'-[(1,3-dioxo-1,3propanediyl)diimino]bisbenzoic acid]
- IC50 (hyaluronidase; read-out: IC50): 0.134 mM

SMILES: O=C(Nc1cccc(C(=O)O)c1)C(=Cc1ccccc1)C(=O)Nc1cccc(C(=O)O)c1 [Compound 12]
- IC50 (hyaluronidase; read-out: IC50): 0.065 mM

SMILES: O=C(Nc1ccc(C(=O)O)cc1)C(=Cc1ccccc1)C(=O)Nc1ccc(C(=O)O)cc1 [Compound 13]
- IC50 (hyaluronidase; read-out: IC50): 0.055 mM

SMILES: O=C(Nc1cc(Cl)ccc1C(=O)O)C(=Cc1ccccc1)C(=O)Nc1cc(Cl)ccc1C(=O)O [Compound 15]
- IC50 (hyaluronidase; read-out: IC50): 0.055 mM

SMILES: O=C(Nc1cc([N+](=O)[O-])ccc1C(=O)O)C(=Cc1ccccc1)C(=O)Nc1cc([N+](=O)[O-])ccc1C(=O)O [Compound 16]
- inhibition in vivo at 50 mg/kg [1, 3]: 3.2%
- inhibition in vivo at 50 mg/kg [1, 4]: 9%
- inhibition in vivo at 100 mg/kg [1, 3]: 11.8%
- inhibition in vivo at 100 mg/kg [1, 4]: 12.2%
- IC50 (hyaluronidase; IC50 (mM)): 0.01 mM

SMILES: Cc1ccc(NC(=O)C(=Cc2ccccc2)C(=O)Nc2ccc(C)cc2C(=O)O)c(C(=O)O)c1 [Compound 17]
- IC50 (hyaluronidase; read-out: IC50): 0.142 mM

SMILES: COc1ccc(C(=O)O)cc1NC(=O)C(=Cc1ccccc1)C(=O)Nc1cc(C(=O)O)ccc1OC [Compound 18]
- IC10 (hyaluronidase): 0.29 mM

SMILES: COc1ccc(C=C(C(=O)Nc2ccccc2C(=O)O)C(=O)Nc2ccccc2C(=O)O)cc1 [Compound 19]
- IC50 (hyaluronidase; read-out: IC50): 0.013 mM

SMILES: COc1cc(C=C(C(=O)Nc2ccccc2C(=O)O)C(=O)Nc2ccccc2C(=O)O)cc(OC)c1OC [Compound 23]
- Inhibition % Gastric Acidity ([2]; id 100 mg/kg): 32.5%
- Inhibition % secretion amount of gastric juice ([2]; id 100 mg/kg): 8.5%
- Inhibition % total pepsin titer ([2]; id 100 mg/kg): 31.1%
- Inhibition % Gastric Acidity ([2]; id 200 mg/kg): 40.2%
- Inhibition % secretion amount of gastric juice ([2]; id 200 mg/kg): 11.2%
- Inhibition % total pepsin titer ([2]; id 200 mg/kg): 41.2%
- IC50 (hyaluronidase; read-out: IC50): 0.03 mM

SMILES: O=C(Nc1ccccc1C(=O)O)C(=Cc1ccc2c(c1)OCO2)C(=O)Nc1ccccc1C(=O)O [Compound 25]
- Inhibition % Gastric Acidity ([2]; id 100 mg/kg): 45.2%
- Inhibition % secretion amount of gastric juice ([2]; id 100 mg/kg): 25.5%
- Inhibition % total pepsin titer ([2]; id 100 mg/kg): 32.1%
- Inhibition % Gastric Acidity ([2]; id 200 mg/kg): 80.0%
- Inhibition % secretion amount of gastric juice ([2]; id 200 mg/kg): 50.7%
- Inhibition % total pepsin titer ([2]; id 200 mg/kg): 40.5%
- Inhibition % Gastric Acidity ([2]; ip 50 mg/kg): 67.4%
- Inhibition % secretion amount of gastric juice ([2]; ip 50 mg/kg): 53.4%
- Inhibition % total pepsin titer ([2]; ip 50 mg/kg): 82.2%
- IC50 (hyaluronidase; read-out: IC50): 0.013 mM

SMILES: CC(C)c1ccc(C=C(C(=O)Nc2ccccc2C(=O)O)C(=O)Nc2ccccc2C(=O)O)cc1 [Compound 27]
- IC50 (hyaluronidase; read-out: IC50): 0.03 mM

SMILES: CN(C)c1ccc(C=C(C(=O)Nc2ccccc2C(=O)O)C(=O)Nc2ccccc2C(=O)O)cc1 [Compound 28]
- IC50 (hyaluronidase; read-out: IC50): 0.11 mM

SMILES: O=C(Nc1ccccc1C(=O)O)C(=Cc1cccc(Cl)c1)C(=O)Nc1ccccc1C(=O)O [Compound 31]
- IC50 (hyaluronidase; read-out: IC50): 0.025 mM

SMILES: O=C(Nc1ccccc1C(=O)O)C(=Cc1ccccc1Cl)C(=O)Nc1ccccc1C(=O)O [Compound 32]
- IC50 (hyaluronidase; read-out: IC50): 0.025 mM

SMILES: O=C(Nc1ccccc1C(=O)O)C(=Cc1ccc(Br)cc1)C(=O)Nc1ccccc1C(=O)O [Compound 33]
- IC50 (hyaluronidase; read-out: IC50): 0.015 mM

SMILES: O=C(Nc1ccccc1C(=O)O)C(=Cc1ccc(F)cc1)C(=O)Nc1ccccc1C(=O)O [Compound 34]
- IC50 (hyaluronidase; read-out: IC50): 0.025 mM

SMILES: O=C(Nc1ccccc1C(=O)O)C(=Cc1ccc(C(F)(F)F)cc1)C(=O)Nc1ccccc1C(=O)O [Compound 35]
- IC50 (hyaluronidase; read-out: IC50): 0.015 mM

SMILES: O=C(Nc1ccccc1C(=O)O)C(=Cc1ccc([N+](=O)[O-])cc1)C(=O)Nc1ccccc1C(=O)O [Compound 36, 2,2'-[[1,3-dioxo-2-(4-nitro)phenylmethylene-1,3-propanediyl]diimino]bisbenzoic acid]
- IC50 (hyaluronidase; read-out: IC50): 0.025 mM

SMILES: N#Cc1ccc(C=C(C(=O)Nc2ccccc2C(=O)O)C(=O)Nc2ccccc2C(=O)O)cc1 [Compound 37]
- IC50 (hyaluronidase; read-out: IC50): 0.017 mM

SMILES: O=C(Nc1ccccc1C(=O)O)C(=Cc1cccc2ccccc12)C(=O)Nc1ccccc1C(=O)O [Compound 38]
- IC50 (hyaluronidase; read-out: IC50): 0.023 mM

SMILES: O=C(Nc1ccccc1C(=O)O)C(=Cc1ccco1)C(=O)Nc1ccccc1C(=O)O [Compound 39]
- IC50 (hyaluronidase; read-out: IC50): 0.04 mM

SMILES: O=C(Nc1ccccc1C(=O)O)C(=Cc1cccs1)C(=O)Nc1ccccc1C(=O)O [Compound 40, 2,2'-[[1,3-dioxo-2-{2-thienyl)methylene-1,3-propanediyl]diimino]bisbenzoicacid]
- IC50 (hyaluronidase; read-out: IC50): 0.035 mM

SMILES: O=C(Nc1ccccc1C(=O)O)C(=Cc1ccsc1)C(=O)Nc1ccccc1C(=O)O [Compound 41, 2,2'-[(1,3-dioxo-2-(3-thienyl)methylene-1,3-propanediyl)diimino]bisbenzoicacid]
- IC50 (hyaluronidase; read-out: IC50): 0.06 mM

SMILES: O=C(Nc1ccccc1C(=O)O)C(=Cc1ccc[nH]1)C(=O)Nc1ccccc1C(=O)O [Compound 42]
- IC50 (hyaluronidase; read-out: IC50): 0.025 mM

SMILES: Cn1cccc1C=C(C(=O)Nc1ccccc1C(=O)O)C(=O)Nc1ccccc1C(=O)O [Compound 43, 2,2'-[(1,3-dioxo-2-(1-methyl-1H-pyrrol-2-yl)methylene-1,3-propanediyl)diimino]bisbenzoic acid]
- IC50 (hyaluronidase; read-out: IC50): 0.04 mM

SMILES: O=C(Nc1ccccc1C(=O)O)C(=Cc1cccnc1)C(=O)Nc1ccccc1C(=O)O [Compound 44]
- IC50 (hyaluronidase; read-out: IC50): 0.073 mM

SMILES: Cn1cc(C=C(C(=O)Nc2ccccc2C(=O)O)C(=O)Nc2ccccc2C(=O)O)c2ccccc21 [Compound 45]
- IC50 (hyaluronidase; read-out: IC50): 0.01 mM

SMILES: O=C(Nc1ccccc1C(=O)O)C(=Cc1ccccc1)C(=O)Nc1cc(Cl)ccc1C(=O)O [Compound 46, 4-chloro-2,2'-[(1,3-dioxo-2-phenylmethylene-1,3-propanediyl)diimimo]bisbenzoic acid]
- IC50 (hyaluronidase; read-out: IC50): 0.03 mM

SMILES: O=C(O)c1ccccc1NC(=O)C(Cc1ccccc1)C(=O)Nc1ccccc1C(=O)O [Compound 50, 2,2'-[(1,3-dioxo-2-phenylmethyl-1,3-propanediyl)diimino]bisbenzoic acid]
- IC50 (hyaluronidase; read-out: IC50): 0.05 mM

SMILES: CNC(=C[N+](=O)[O-])NCCSCc1ccc(CN(C)C)o1 [Ranitidine, reference compound]
- Inhibition % Gastric Acidity ([2]; id 30 mg/kg): 63.0%
- Inhibition % secretion amount of gastric juice ([2]; id 30 mg/kg): 25.2%
- Inhibition % total pepsin titer ([2]; id 30 mg/kg): 20.6%
